This is an account of results in patent US7910579B2, “Benzoxazole derivatives” (Tohoku University, priority 2006, dated 2011).

Data set [1] has as its target T1, amyloid β protein in the brain section of an Alzheimer disease patient (Homo sapiens, UniProt P05067).
T1 construct: from tissue; host or cells: paraffin-embedded temporal lobe and hippocampus of Alzheimer disease patients
Nature of the data set: Staining test on a brain section of an Alzheimer disease patient: amyloid β protein. To be noted: 100 μM solution in 50% ethanol, 10 minutes, paraffin brain section. Format: binding. An excerpt: (1) Brain specimens at the temporal lobe and the hippocampus of patients to which a definitive diagnosis of Alzheimer disease had been given, and those of normal senile persons were used. The specimens were given by our coworker, Fukushimura Hospital, Longevity Medicine Institute, and we were given their consent of use of the specimens for our study purpose by the bereaved of the patients (Fukushimura Hospital Ethical Review Board Approval No. 20).
(2) The paraffin-embedded brain tissue was cut Into slices having a thickness of 6 μm or 8 μm, and extended and dried on a slide. The paraffin brain section was steeped for paraffin removal in xylene twice for 10 minutes, 100% ethanol twice for 5 minutes, 90% ethanol for 5 minutes and running water for 10 minutes in that order.
(3) For pretreatment prior to the staining treatment with a compound of the invention, the sections were steeped for autofluorescence removal with lipofuscin. First, the paraffin-removed sections were dipped in 0.25% KMnO4 solution for 20 minutes. These were washed with PBS, twice for 2 minutes, then dipped in 0.1% K2S2O5/oxalic acid solution for about 5 seconds, and then further washed with PBS, three times for 2 minutes.
(4) About 150 μl of a 100 μM solution of a compound of the invention dissolved in 50% ethanol was dropwise applied to the section and reacted for 10 minutes. After dipped five times in tap water, the section was entrapped with Fluor Save Reagent (Calbiochem), and analyzed through microscopy with a fluorescence microscope (Nikon, Eclipse 80i). The images were taken with a digital camera (Nikon Dxm 1200F or Photometrics' Cool SNAP ES).
(1) After paraffin removal, the sections were washed in distilled water, twice for 2 minutes. Then, using ImmunoPen, the tissue was marked with a surrounding line; about 150 μl of formic acid was dropwise applied to the section and statically left at room temperature for 5 minutes. The section was washed with tap water for 5 minutes, then dipped in cold PBS-Tween 20 for 2 minutes, and thereafter about 150 μl of 0.05% trypsin solution was dropwise applied to it and reacted at 37° C. for 15 minutes.
(2) In an ice bath, this was washed with cold PBS-Tween 20, twice for 5 minutes, and then 2 drops of blocking serum were applied to it and reacted at 37° C. for 30 minutes. Excess water was removed, and then about 150 μl of a specific antibody to amyloid β protein, 6F/3D (by DAKO, 1/50 dilution) was dropwise applied to it, and reacted at 37° C. for 1 hour.
(3) Further, this was washed with cold PBS-Tween 20, 5 times for 2 minutes, and then 2 drops of an anti-mouse IgG (H+L), goat, biotin-binding solution were applied to it and reacted at 37° C. for 1 hour. Then, this was washed with cold PBS-Tween 20, three times for 2 minutes, and 2 drops of an ABC solution (streptoavidin-biotin-peroxidase composite solution) were applied to it, and left statically as such for 30 minutes. Again this was washed with cold PBS-Tween 20, three times for 2 minutes, and then about 150 μl of a DAB solution (10 mg of DAB was dissolved in 20 ml of 0.05 mol/liter tris-HCl buffer, and just before use, 100 μl of 3% hydrogen peroxide water was added to it) was dropwise applied to it for sufficiently staining it. Then, this was washed with distilled water for 1 minute to stop the reaction, then entrapped and observed through microscopy.

A further data set is described as follows: Acute Toxicity Test. Format: in vivo. To be noted: Crj:CD1 male mice, tail vein, observed for 7 days.
Data set [2] addresses T2, Tg mouse intracerebral amyloid plaque (Homo sapiens, UniProt P05067).
T2 construct: from tissue; host or cells: brain of Tg mice (Tg2576 or APPswe2576/Tau JNPL3) after intravenous dosing
Nature of the data set: Investigation of transgenic (Tg) mice with amyloid deposition in their brain (fluorescence microscopy of brain sections after intravenous administration). To be noted: Tg2576 mouse, 4 mg/kg intravenous; for Passage through the blood-brain barrier and binding to Tg mouse intracerebral amyloid plaque: 1 hour after administration. Format: in vivo.

T1 sequence (P05067 672-713 limits assumed): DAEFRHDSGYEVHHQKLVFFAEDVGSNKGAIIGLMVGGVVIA
T2 sequence (P05067 672-713 limits assumed): as above

For `CN(C)c1ncc(/C=C/c2nc3ccc(OC(CO)CF)cc3o2)s1` (stereo not shown) [THK-763, (E)-6-[(1-fluoromethyl-2-hydroxy)ethoxy]-2-[2-[2-dimethylamino-thiazol-5-yl]ethenyl]benzoxazole], in data set [1], the “Binding to (staining of) amyloid β protein in the brain section of an Alzheimer disease patient” value (shortened to “Binding … of an Alzheimer disease patient”) is “white space arrow indicates amyloid β protein”. Moreover, in the data set “Acute Toxicity Test”, the “Maximum Permissible Dose (mg/kg, intravenous administration)” value (“Maximum Permissible Dose” for short) was “≧10 mg/kg”.

`OCC(CF)Oc1ccc2nc(/C=C/c3cnc(N4CCOCC4)s3)oc2c1` (stereo not shown) [THK-702, (E)-2-[2-(2-morpholinothiazol-5-yl)ethenyl]-6-[(1-fluoromethyl-2-hydroxy)ethoxy]-benzoxazole]: the “Passage through the blood-brain barrier and binding to Tg mouse intracerebral amyloid plaque” value in data set [2] was “passed through the blood-brain barrier, and bound to the amyloid plaque of the Tg mouse”. Besides, in data set [2] (antibody 4G8), the “Correspondence of the binding site to the anti-Aβ antibody-stained site of the same section” value is listed as “completely corresponded to the anti-Aβ antibody-stained site”. Further, the “Binding … of an Alzheimer disease patient” value in data set [1] was “white space arrow indicates amyloid β protein”. Besides, the “Maximum Permissible Dose” value in the data set “Acute Toxicity Test” was “≧10 mg/kg”.

`CNc1ncc(/C=C/c2nc3ccc(OC(CO)CF)cc3o2)s1` (stereo not shown) [THK-761, (E)-6-[(1-fluoromethyl-2-hydroxy)ethoxy]-2-[2-[2-methylaminothiazol-5-yl]ethenyl]-benzoxazole]: in data set [1], the “Binding … of an Alzheimer disease patient” value is listed as “white space arrow indicates amyloid β protein”. Also, the “Maximum Permissible Dose” value in the data set “Acute Toxicity Test” is reported as “≧10 mg/kg”.

On to `OCC(CF)Oc1ccc2nc(/C=C/c3cnc(N4CCCC4)s3)oc2c1` (stereo not shown) [THK-752, (E)-6-[(1-fluoromethyl-2-hydroxy)ethoxy]-2-[2-[2-(pyrrolidin-1-yl)-thiazol-5-yl]ethenyl]benzoxazole], for which the “Binding … of an Alzheimer disease patient” value in data set [1] is on record as “white space arrow indicates amyloid β protein”. In the data set “Acute Toxicity Test”, the “Maximum Permissible Dose” value is recorded as “≧10 mg/kg”.

As for `FCCOc1ccc2nc(/C=C/c3cnc(N4CCOCC4)s3)oc2c1` [THK-525, 6-(2-fluoro-ethoxy)-2-[2-(2-morpholin-4-yl-thiazol-5-yl)-vinyl]-benzoxazole], the “Passage through the blood-brain barrier and binding to Tg mouse intracerebral amyloid plaque” value in data set [2] was “passed through the blood-brain barrier, and bound to the Tg mouse intracerebral amyloid plaque”. In addition, the “Binding … of an Alzheimer disease patient” value in data set [1] was “bound to the amyloid β protein”. Further, the “Maximum Permissible Dose” value in the data set “Acute Toxicity Test” is given as “≧10 mg/kg”.
